Laboratory results as given in article PMC9482650, “Quantitative fragmentomics allow affinity mapping of interactomes” (Nature Communications, 2022).
Ends that are not written are not given here. * marks the point of attachment. Biotin = O=C1N[C@H]2[C@H](CS[C@H]2CCCCC(=O)*)N1; ttds = NCCCOCCOCCOCCCNC(=O)CCC(=O)*

Experiments:
Test in all cases: PBM-AP-MS from Jurkat extract
Type in all cases: binding, Homo sapiens
DLG1 = conditions: prey DLG1, PBM peptide bait
Description: (§1) For PBM-AP-MS experiments, 30 μl streptavidin resin was mixed with biotin or peptide at 50–60 μM concentration in 6–6.5 resin volume for 60 min to achieve resin saturation. For PDZ-AP-MS experiments, 30 μl streptavidin resin was mixed with biotinylated MBP or MBP-PDZ at 40-50 μM concentration in >1000× resin volume for 60 min to achieve resin saturation. After saturation, resins were washed a single time (ten resin volume, holdup buffer), and were depleted with biotin (1 mM biotin, 5–10 resin volume, 10 min). Finally, resins were washed two times. 0.5 ml 2 mg/ml cell lysate was added to the dry resin (1 mg total input) and were incubated at 4 °C for 2 h. Then, the beads were washed three times with 10 resin volume buffer containing: 50 mM TRIS pH 8.5, 150 mM NaCl, 1% TritonX-100, 10× complete EDTA-free protease inhibitor cocktail, 2 mM EDTA, 1 mM TCEP. Then, the beads were washed two times with ten resin volume buffer containing: 50 mM TRIS pH 8.5, 150 mM NaCl, 1 mM TCEP. Finally, captured protein was eluted from the resin in two steps and the eluted fractions were pooled. For each elution the beads were incubated for 30 min with three resin volume buffer containing: 20 mM TRIS pH8.5, 100 mM NaCl, 500 μM TCEP, 8 M Urea. Between each step, the beads were separated by mild centrifugation and the supernatant was removed by gentle pipetting.
(§2) Proteins were identified by database searching using SequestHT (Thermo Fisher Scientific) with Proteome Discoverer 2.4 software (PD2.4, Thermo Fisher Scientific) on human FASTA database downloaded from SwissProt (reviewed, release 2020_11_27, 20304 entries, https://www.uniprot.org/). Precursor and fragment mass tolerances were set at 7 ppm and 0.6 Da respectively, and up to two missed cleavages were allowed. Oxidation (M, +15.995 Da) was set as variable modification, and Carbamidomethylation (C, +57.021 Da) as fixed modification. Peptides and proteins were filtered with a false discovery rate at 1%. Label-free quantification was based on the extracted ion chromatography intensity of the peptides. All samples were measured in technical triplicates. The measured extracted ion chromatogram (XIC) intensities were normalized based on median intensities of the entire dataset to correct minor loading differences. For statistical tests and enrichment calculations, not detectable intensity values were treated with an imputation method, where the missing values were replaced by random values similar to the 10% of the lowest intensity values present in the entire dataset. Unpaired two-tailed T-test, assuming equal variance, were performed on obtained log2 XIC intensities. The detection threshold for enriched proteins in AP-MS experiments were analyzed above twofold enrichment with <0.01 P value. Then, proteins with PDZ-domains or PBMs were extracted from the list of enriched proteins. In case only a specific isoform of the detected protein contains a PBM, the identified peptide fragments were manually checked to check which isoform(s) were most likely detected. All raw LC-MS/MS data (from 165 runs) have been deposited to the ProteomeXchange via the PRIDE database with identifier PXD027743.

LIN7C = conditions: prey LIN7C, PBM peptide bait
Description: as §1, §2

SCRIB = conditions: prey SCRIB, PBM peptide bait
Description: as §1, §2

CASK = conditions: prey CASK, PBM peptide bait
Description: as §1, §2

MAGI1 = conditions: prey MAGI1, PBM peptide bait
Description: as §1, §2

Substance | Enrichment values compared to biotin controls (DLG1) | Enrichment values compared to biotin controls (LIN7C) | Enrichment values compared to biotin controls (SCRIB) | Enrichment values compared to biotin controls (CASK) | Enrichment values compared to biotin controls (MAGI1)
HPV18E6 | 519.3 | 68.0 | 288.2 | 15.2 | 134.3
HPV30E6 ({Biotin-ttds}-RHTTSTETAV) | 488.6 | 26.9 | 266.4 | 11.1 | 25.1
HPV35E6 ({Biotin-ttds}-SKPTRRETEV) | 596.6 | 34.7 | 314.5 | 12.7 | 54.3
